The test system of data set [1] is misfolded toxic tau in P301L mouse brain homogenate; C. elegans. The data set is classed as in vivo, Caenorhabditis elegans (Bristol N2). The procedure:
Bristol N2 nematodes were obtained from the Caenorhabditis elegans Genetic Center (CGC, University of Minnesota, Minneapolis, MN, USA) and propagated at 20 °C on solid Nematode Growth Medium (NGM) seeded with E. coli OP50 (CGC) for food. We used the bleaching technique to prepare age-synchronized animals. C. elegans at the first larval stage were then transferred to fresh NGM plates and grown at 20 °C. At the L3-L4 larval stage, nematodes were collected with M9 buffer, centrifuged, and washed twice with 10 mM PBS (pH 7.4) to eliminate bacteria. Worms were incubated for 2 h at room temperature with orbital shaking, in the absence of E. coli, with brain homogenates from Non-tg and P301L mice (30 µg protein/100 worms/100 µL 10 mM PBS, pH 7.4) in the presence or absence of 50 µM Aβ1-6A2V(D), 50 µM TAT, or 0.1–200 µM Aβ1-6A2V-TAT(D). Control worms were treated with 10 mM PBS, pH 7.4 (Vehicle), 50 µM Aβ1-6A2V (D), 50 µM Aβ1-6A2V-TAT(D) or 50 µM TAT (100 worms/100 µL). Pericontusional tissue homogenates from young WT TBI mice 12 months post-injury or aged-matched sham mice were administered to worms (30 µg protein/100 worms/100 µL) in the absence or presence of 50 µM Aβ1-6A2V-TAT(D). Pericontusional tissue homogenates from 3xTg-AD TBI mice, as well as pericontusional tissues from aged WT TBI, previously treated or not with intranasal 50 mg/kg b.w. […] Homogenates from naive or sham mice were administered to worms as controls for 3xTg-AD and aged WT TBI mice, respectively ((30 µg protein/100 worms/100 µL 10 mM PBS, pH 7.4). As an additional negative control, 10 mM PBS, pH 7.4 (100 worms/100 µL) was administered to nematodes. Worms were then plated onto NGM plates seeded with OP50 E. coli, grown at 20 °C, and transferred every day to new NGM plates seeded with E. coli to avoid overlapping generations. The locomotor activity of nematodes was scored 7 days after the treatment in blind conditions and expressed as the body bends/min [26]. […]

Data set [2] concerns abnormal tau in WT TBI mouse brain homogenate; C. elegans. Description: Locomotor activity of C. elegans exposed to brain homogenate of WT TBI mice 12 months post-injury. The note with it: 50 µM peptide, pericontusional tissue 12 months post-injury, 30 µg protein/100 worms/100 µL, 7 days after treatment; N = 30. The data set is classed as in vivo, Caenorhabditis elegans (Bristol N2). The procedure:
Bristol N2 nematodes were obtained from the Caenorhabditis elegans Genetic Center (CGC, University of Minnesota, Minneapolis, MN, USA) and propagated at 20 °C on solid Nematode Growth Medium (NGM) seeded with E. coli OP50 (CGC) for food. We used the bleaching technique to prepare age-synchronized animals. C. elegans at the first larval stage were then transferred to fresh NGM plates and grown at 20 °C. At the L3-L4 larval stage, nematodes were collected with M9 buffer, centrifuged, and washed twice with 10 mM PBS (pH 7.4) to eliminate bacteria. […] Homogenates from naive or sham mice were administered to worms as controls for 3xTg-AD and aged WT TBI mice, respectively ((30 µg protein/100 worms/100 µL 10 mM PBS, pH 7.4). As an additional negative control, 10 mM PBS, pH 7.4 (100 worms/100 µL) was administered to nematodes. Worms were then plated onto NGM plates seeded with OP50 E. coli, grown at 20 °C, and transferred every day to new NGM plates seeded with E. coli to avoid overlapping generations. The locomotor activity of nematodes was scored 7 days after the treatment in blind conditions and expressed as the body bends/min [26]. […]

In data set [3] the test system is tau (P301L mouse brain homogenate), proteinase K. As to the kind of experiment: Proteolysis of tau in P301L brain homogenate. The format is biochemical, human tau with P301L mutation, JNPL3 mice. Conditions: 50 µM Aβ1-6A2V-TAT(D), P301L brain homogenate 30 µg protein/100 µL, 30 min at 37 °C with proteinase K (2.5–10 µg/ml).
The subject of data set [4] is C. elegans. The note with it: C. elegans; ref [18]; cited from earlier work.

Square brackets hold non-standard residues; d marks the D form. Peptide text beside a SMILES is read from it.

Turning to `CC(C)[C@@H](NC(=O)[C@H](N)CC(=O)O)C(=O)N[C@H](CCC(=O)O)C(=O)N[C@H](Cc1ccccc1)C(=O)N[C@H](CCCNC(=N)N)C(=O)N[C@H](Cc1c[nH]cn1)C(=O)NCC(=O)NCC(=O)NCC(=O)NCC(=O)NCC(=O)N[C@H](CCCNC(=N)N)C(=O)N[C@H](CCCCN)C(=O)N[C@H](CCCCN)C(=O)N[C@H](CCCNC(=N)N)C(=O)N[C@H](CCCNC(=N)N)C(=O)N[C@H](CCC(N)=O)C(=O)N[C@H](CCCNC(=N)N)C(=O)N[C@H](CCCNC(=N)N)C(=O)N[C@H](CCCNC(=N)N)C(=O)O` [Aβ1-6A2V-TAT(D)] (H-[dD][dV][dE][dF][dR][dH]GGGGG[dR][dK][dK][dR][dR][dQ][dR][dR][dR]-OH; N-terminus assumed), in data set [1] (0-200 µM peptide, body bends 7 days after treatment), the “Dose dependence of the protection of worms from P301L brain homogenate” value is recorded as “The effect was dose-dependent”. For the same compound, the “Protection of worms from toxicity of P301L brain homogenate” value in data set [1] (30 µg protein/100 worms/100 µL, body bends 7 days after treatment, 50 µM peptide) is listed as “protected worms from the toxicity caused by P301L brain homogenates”. In data set [1] (0.1–200 µM peptide, 30 µg protein/100 worms/100 µL, 2 h exposure at room temperature, PBS pH 7.4, body bends 7 days after treatment, three independent experiments (N = 30), read-out: IC50 for protection of worms from P301L brain homogenate toxicity), the IC50 turned out to be 25.6 µM. The “Reversal of toxic effect of WT TBI brain homogenate in C. elegans” value in data set [2] was “completely reverted”. Moreover, in data set [3], the “Susceptibility of tau to degradation by proteases” value is “increased the susceptibility of tau to degradation by proteases, and this was particularly evident in the presence of proteinase K”. In data set [4], the “Passage through the worm's membrane” value was “only in the presence of the TAT sequence, Aβ1-6A2V(D) can pass through the worm’s membrane”.

In general, IC50 refers to the concentration that gives 50% inhibition.

The record behind these values is PMC10611578, “Aβ1-6A2V(D) peptide, effective on Aβ aggregation, inhibits tau misfolding and protects the brain after traumatic brain injury” (Molecular Psychiatry, 2023).
